In patent publication US20080070855A1, “Treatment with anti-VEGF agents to prevent postoperative inflammation and angiogenesis in normal and diseased eyes” (priority 2006, published 2008):

System: patients with diabetic retinopathy undergoing cataract surgery
Experiment: Intravitreal injection of anti-VEGF compound before cataract surgery in patients with diabetic retinopathy (case reports)
Type: in vivo, human
Settings: Example 2: diabetic retinopathy; 0.15 cc (3.75 mg) intravitreal, same day prior to cataract surgery
Protocol: The following is an example of a method performed for the intravitreal injection of pharmaceutical compositions containing at least one anti-VEGF compound. Prior to injecting a needle through the sclera, the eyes were massaged to soften the ophthalmic tissue. The next step is to create a bleb in the conjunctiva and move the conjunctiva up from prefere so it covered an area about 3.5 mm from the limbus. Once the conjunctiva is prepared, the needle is inserted through the sclera into the vitreous. A 30 or 31 gauge needle is used. […]
A person underwent cataract surgery in the right eye. […] Refraction of the right eye was measured as −0.25−0.75×170 20/200. […] Refraction of the right eye after one week was measured at −0.25 sph 20/25.
A person with proliferative diabetic retinopathy with a history of pan-photocoagulation underwent cataract surgery of both eyes, however on different dates. Preoperative right eye refraction was measured as pl −0.50×174 20/100. Preoperative left eye refraction was measured as −0.75 sph 20/150. […]
A person with proliferative diabetic retinopathy with a history of pan-photocoagulation underwent cataract surgery of the left eye. Preoperative left eye refraction was measured as plano sph 20/80. […] Six days following cataract surgery refraction of the left eye was measured as plano sph 20/25.

In the case of “Bevacizumab: anti-VEGF humanized monoclonal IgG1 antibody that binds and inhibits VEGF (trade name AVASTIN, Genentech)”, the “Patient condition after one week” value was “doing well”.
